Assay results: article PMC11432454, “An Ingenane-Type Diterpene from Euphorbia kansui Promoted Cell Apoptosis and Macrophage Polarization via the Regulation of PKC Signaling Pathways” (International Journal of Molecular Sciences, 2024)
Where two headings read alike, the source gives them in different places. Blank lines part the entries; values can stand above or below the compound they belong to.

Experiments:
[1] = system: HepG2 cells; test: MTT assay, cell viability of HepG2 cells; assay type: cell-based; settings: Homo sapiens
Procedure: (§1) 8 × 10^4 cells/well were incubated in 96T wells for 24 h, and the cells were treated with a drug-containing medium for a specified time. Cells were added 20 μL 0.5% MTT (Sigma, USA) to each well, continued to incubate at 37 °C for 3.5 h, then the medium was discarded and 150 μL of DMSO was added to each well to dissolve the purple formazan. The cells were shaken for 15 min at room temperature and read at 490 nm. Cell viability (%) = ([…])/(ODcontrol − ODblank) × 100%. IC50 (half maximal inhibitory concentration) was calculated by SPSS 27.0 software.

[2] = system: PKC δ, ERK, and NF-κB in LPS-stimulated RAW264.7 cells; test: Western blotting of PKC δ, ERK, NF-κB in LPS-stimulated RAW264.7 cells; assay type: cell-based, mouse; settings: for level of PKC δ protein / phosphorylation of PKC δ, ERK, and NF-κB: LPS-stimulated RAW264.7, 24 h; for phosphorylation of PKC δ, ERK, and NF-κB: compared to the LPS group, BIS 150 nmol·L^−1
Procedure: (§2) Mouse macrophage cell line RAW264.7 was incubated in a DMEM medium (Gibco, Carlsabad, CA, USA) supplemented with 10% fetal bovine serum (FBS, Gibco), 10,000 U/mL penicillin, and 10,000 μg/mL streptomycin. RAW264.7 cells were treated with 1 μg/mL Lipopolysaccharide (LPS, Sigma, Saint Louis, MO, USA, 12181202) to promote the polarization of macrophages towards M1 or 20 ng/mL interleukin 4 (IL-4, Beyotime, Shanghai, China) to promote the polarization of macrophages towards M2.
(§3) Protein samples were prepared using a RIPA lysis buffer. The concentration of the protein was analyzed using nucleic acid and protein microanalyzer (Molecular Devices, San Jose, CA, USA). SDS-PAGE gel electrophoresis was performed to separate the proteins, which then were electro-transferred onto a PVDF membrane. The membranes were blocked with 5% non-fat milk for 2 h and incubated with primary antibodies and secondary antibodies. The protein bands were detected by the ECL and were exposed to the TANON gel imager (Shanghai, China). The results were analyzed by Image J 180 software.
In order to investigate the effects of PKC activation on the effects of drug treatment, 150 nmoL/L bisindolylmaleimide (BIS) was used. BIS (Beyotime, Shanghai, China) is a potent inhibitor of PKC α/β/γ and PKC δ/ε. This agent was stored at −80 °C in DMSO and cells were pre-incubated with the inhibitor for 4 h prior to being treated with compound A.

[3] = MTT assay, cell viability of RAW264.7 cells; assay type: cell-based; settings: mouse, RAW264.7 macrophage cells; half inhibitory of RAW264.7 cells, cell survival, n = 3
Procedure: as §2, §1

[4] = system: HepG2 and RAW264.7 cell co-cultivations; test: Annexin V/PI flow cytometry, HepG2 and RAW264.7 co-cultivation; assay type: cell-based; settings: 48 h, compared with the HepG2 cell group
Procedure: (§4) Cells with the relevant surface antibodies were incubated at 4 °C for 30 min without light. The stained cells were incubated with Annexin V/PI kits from BD. The experiment was conducted according to the instructions. Data were analyzed on FlowJo V10 software.

[5] = system: Bax, cleaved caspase 3 and 8, IL-6, ARG-1, CD206, COX2 in HepG2 and RAW264.7 cell co-cultivations; test: Western blotting and ELISA in HepG2 and RAW264.7 co-cultivation; assay type: cell-based
Procedure: (§5) The isolates were evaluated for their inhibitory effect on NO production in LPS-induced RAW264.7 cells. The iNOS inhibitor (NG-monnomycin-L-arginine, L-NMMA) was selected as the positive control. NO was evaluated by absorbance-based detection on nitrite accumulated in the culture medium. The levels of cytokines (IL-1β, IFN-γ, IL-10, TNF-α, and IL-6) in the cell supernatant were determined using an ELISA kit (Novus Biologicals, Centennial, CO, USA) according to the manufacturer’s instructions. The absorbance was read at OD450nm/OD540nm in SpectraMax340PC microplate spectrophotometer (Molecular Devices, San Jose, CA, USA).
as §3

[6] = system: MCF-7 cells; test: MTT assay, cell viability of MCF-7 cells; assay type: cell-based; settings: Homo sapiens, MCF7, read-out: MCF-7 IC50
Procedure: as §1

[7] = system: A549 cells; test: MTT assay, cell viability of A549 cells; assay type: cell-based; settings: Homo sapiens, A549, read-out: A549 IC50
Procedure: as §1

[8] = system: NO production in LPS-stimulated RAW264.7 cells; test: cells; assay type: cell-based; settings: Mus musculus
Procedure: as §2, §5

[9] = system: Bax, cleaved caspase 3, cleaved caspase 8 in HepG2 cells; test: Western blotting of apoptosis-related proteins in HepG2 cells; assay type: cell-based, human; settings: 12.5 or 25 μmol·L^−1
Procedure: as §3

[10] = system: PKC δ, ERK, STAT3, STAT6, ARG-1, CD163, TGF-β, CD206 in IL-4-stimulated RAW264.7 cells; test: M2 polarization markers in IL-4-stimulated RAW264.7 cells (Western blot, immunofluorescence); assay type: cell-based, mouse
Procedure: as §2
RAW264.7 cells were fixed with 500 μL/well 4% paraformaldehyde for 20 min at room temperature, washed with 1 mL/well PBS five times, then incubated with anti-iNOS, anti-COX-2, or anti-CD206 antibodies at 4 °C overnight, separately. The cells were washed with 1 mL/well PBS five times, then treated with the secondary antibody (FITC-Goat anti-rabbit IgG antibody, 1:200-fold dilution) and DPAI (100 μL/well). […] The stained images were captured under a laser scanning confocal microscope (Nikon A1 AIR MP+, Tokyo, Japan).
as §3

[11] = system: PKC δ and ERK in HepG2 cells; test: Western blotting of PKC δ and ERK expression and phosphorylation in HepG2 cells; assay type: cell-based, human
Procedure: as §3

[12] = system: HepG2 cells; test: Annexin V/PI flow cytometry, apoptosis of HepG2 cells; assay type: cell-based, human; settings: 12.5 μmol·L^−1 or 25 μmol·L^−1
Procedure: as §4

[13] = system: iNOS, COX2, NO, IL-1β, IL-6 in LPS-stimulated RAW264.7 cells; test: Inflammatory mediators in LPS-stimulated RAW264.7 cells (Western blot, ELISA, immunofluorescence); assay type: cell-based, mouse; settings: LPS (1 μg·mL^−1)-stimulated RAW264.7, 10 and 5 μmol·L^−1, 24 h
Procedure: as §2, with “M2. […]” for “M2.”
as §5, with “The iNOS inhibitor (NG-monnomycin-L-arginine, L-NMMA) was selected as the positive control.” left out
Protein samples were prepared using a RIPA lysis buffer. The concentration of the protein was analyzed using nucleic acid and protein microanalyzer (Molecular Devices, San Jose, CA, USA). […] The protein bands were detected by the ECL and were exposed to the TANON gel imager (Shanghai, China). The results were analyzed by Image J 180 software.

[14] = compared with HepG2 cell group and co-cultivation group
[15] = IL-4 (20 ng/mL)-stimulated RAW264.7, 10 μmol·L^−1, 0–60 min

IC50 ([1]; HepG2, cell viability, MTT, n = 3, read-out: HepG2 IC50): 4.37 ± 1.21 µM
Compound: COc1cccc2c1C(=O)c1c(O)c3c(c(O)c1C2=O)C[C@@](O)(C(=O)CO)C[C@@H]3O[C@H]1C[C@H](N)[C@H](O)[C@H](C)O1 [Adr, adriamycin, reference compound]

Compound: CCCCCCCCCCCC(=O)OC12CC(C)C34C=C(C)C(OC(=O)C(C)C(C)C)C3(O)C(O)C(CO)=CC(C4=O)C1C2(C)C (centres unmarked) [Compound A, 13-hydroxyingenol-3-(2,3-dimethylbutanoate)-13-dodecanoate]
time of highest point of phosphorylation of PKC δ, ERK, and NF-κB ([2]; LPS (1 μg·mL^−1)-stimulated RAW264.7, compound A 10 μmol·L^−1, 0-60 min): 20 to 30 min
level of PKC δ protein [2]: decreased
phosphorylation of PKC δ, ERK, and NF-κB [2]: significantly reduced
CC50 [3]: 20.3 ± 3.62 µM
apoptosis rates [4]: upregulated
IC50 ([1]; HepG2, read-out: HepG2 IC50): 21 ± 4.53 µM
level of Bax, and cleaved caspase 3 and 8 ([5]; 10 μmol·L^−1, 48 h): significantly increase
COX2 expression [5, 14]: increased
expression of ARG-1 and CD206 [5, 14]: decreased
level of IL-6 [5, 14]: decreased
IC50 [6]: 27.1 ± 3.34 µM
IC50 [7]: 22 ± 5.01 µM
IC50 ([8]; LPS-stimulated RAW264.7 cells, n = 3, read-out: RAW264.7 IC50 (inhibition of nitric oxide production)): 0.57 ± 0.07 µM
expression of Bax, cleaved caspase 3, and cleaved caspase 8 [9]: increased
PKC δ and ERK activation [10, 15]: promote
STAT6 phosphorylation [10, 15]: inhibited
activation of STAT3 and STAT6 ([10]; IL-4-stimulated RAW264.7, co-treatment 24 h): inhibited
expression of ARG-1, CD163, TGF-β, and CD206 ([10]; IL-4-stimulated RAW264.7 cells): downregulated
time of highest level of phosphorylation of PKC δ ([11]; treated 0, 10, 20, 40, 60 min): 10 to 20 min
expression of PKC δ ([11]; versus control group): decreased
phosphorylation of PKC δ (p-PKC δ) and ERK (p-ERK) ([11]; versus control group): downregulated
apoptosis in HepG2 cells [12]: significantly induced apoptosis
COX2 expression [13]: increased
expression of iNOS and production of cytokines (NO, IL-1β, IL-6) [13]: decrease

Compound: [H]/N=C(/NC)NCCC[C@H](N)C(=O)O [l-NMMA, NG-monnomycin-l-arginine, reference compound]
CC50 [3]: > 50 µM
IC50 ([8]; RAW264.7, read-out: RAW264.7 IC50 (inhibition of nitric oxide production)): 21.8 ± 3.21 µM

Compound: bisindolylmaleimide [reference compound]
level of PKC δ protein [2]: did not
phosphorylation of PKC δ, ERK, and NF-κB [2]: significantly reduced
